What was measured:
green foxtail = assay: Test E green foxtail; assay type: in vivo, Setaria viridis; conditions: Preemergence
pigweed = assay: Test B pre/postemergence pigweed; assay type: in vivo, Amaranthus retroflexus
How it was run: (§1)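 Test chemicals in a non-phytotoxic solvent mixture with surfactant were sprayed preemergence onto planted seeds and postemergence onto plants 2 to 18 cm tall (1- to 4-leaf stage). After twelve to sixteen days in a greenhouse, injury was visually rated against untreated controls from 0 (no effect) to 10 (complete control).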

winter wheat [1] = assay: Test E winter wheat; assay type: in vivo, Triticum aestivum; conditions: Preemergence
winter wheat [2] = assay: Test E winter wheat; assay type: in vivo, Triticum aestivum; conditions: Postemergence
How it was run: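 For postemergence, plants at the 1- to 4-leaf stage, in a 60:40 mix of sandy loam and potting mix, treated with compound formulated in a surfactant-containing non-phytotoxic solvent. Visual assessment versus untreated controls followed roughly 21–28 days in the greenhouse.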

winter barley = assay: Test E winter barley; assay type: in vivo, Hordeum vulgare; conditions: Preemergence
sugar beet = assay: Test B pre/postemergence sugar beet; assay type: in vivo, Beta vulgaris
How it was run: as §1

rape = assay: Test B pre/postemergence rape; assay type: in vivo, Brassica napus
How it was run: as §1

blackgrass = assay: Test E blackgrass; assay type: in vivo, Alopecurus myosuroides; conditions: Preemergence
Italian ryegrass = assay: Test E Italian ryegrass; assay type: in vivo, Lolium multiflorum; conditions: Preemergence
wild oat = assay: Test E wild oat; assay type: in vivo, Avena fatua; conditions: Preemergence; Rate 1000 g/ha; 0 to 100 scale where 0 is no effect and 100 is complete control
[3] = Rate 500 g/ha, 0 to 100 scale where 0 is no effect and 100 is complete control
[4] = Rate 1000 g/ha, 0 to 100 scale where 0 is no effect and 100 is complete control
[5] = Postemergence, Rate 62 g/ha, scale 0 to 10, 0 is no effect, 10 is complete control
[6] = Postemergence, Rate 250 g/ha, scale 0 to 10, 0 no effect, 10 complete control
[7] = Preemergence, Rate 62 g/ha, scale 0 to 10 (0 no effect, 10 complete control)
[8] = Preemergence, Rate 125 g/ha, scale 0 to 10 (0 no effect, 10 complete control)
[9] = Preemergence, Rate 250 g/ha, scale of 0 to 10 where 0 is no effect and 10 is complete control
[10] = Preemergence, Rate 500 g/ha, scale 0 (no effect) to 10 (complete control)
[11] = Rate 125 g/ha, Postemergence, scale 0 to 10, 0 no effect, 10 complete control
[12] = Rate 500 g/ha, Postemergence, scale 0 to 10, 0 no effect, 10 complete control
[13] = Postemergence, Rate 62 g/ha, scale of 0 to 10, 0 is no effect, 10 is complete control
[14] = Postemergence, Rate 125 g/ha, scale 0 to 10, 0 is no effect, 10 is complete control
[15] = Postemergence, Rate 500 g/ha, scale 0 to 10, 0 is no effect, 10 is complete control
[16] = Preemergence, Rate 62 g/ha, scale of 0 to 10 where 0 is no effect and 10 is complete control
[17] = Preemergence, Rate 125 g/ha, scale 0 to 10, 0 is no effect, 10 is complete control
[18] = Rate 250 g/ha, Postemergence, scale of 0 to 10 where 0 is no effect and 10 is complete control

Cc1nn(C)c(C)c1-n1c(=O)on(C(=O)N(c2ccc(F)cc2)C(C)C)c1=O [Compound 75]
Plant response rating, Green foxtail (green foxtail; Rate 250 g/ha, 0 to 100 scale): 60
Plant response rating, Green foxtail (green foxtail; [3]): 60
Plant response rating, Green foxtail (green foxtail; [4]): 60
Redroot pigweed plant response rating (pigweed; [5]): 0
Redroot pigweed plant response rating (pigweed; [6]): 0
Redroot pigweed plant response rating (pigweed; [7]): 0
Plant response rating, Redroot pigweed (pigweed; [8]): 2
Plant response rating, Redroot pigweed (pigweed; [9]): 7
Redroot pigweed plant response rating (pigweed; [10]): 10
Redroot pigweed plant response rating (pigweed; [11]): 0
Redroot pigweed plant response rating (pigweed; [12]): 0
Plant response rating, Wheat (winter) (winter wheat [1]; Rate 250 g/ha, 0 to 100 scale): 10
Plant response rating, Wheat (winter) (winter wheat [1]; [3]): 20
Plant response rating, Wheat (winter) (winter wheat [1]; [4]): 65
Plant response rating, Wheat (winter) (winter wheat [2]; Rate 250 g/ha, 0 to 100 scale (0 no effect, 100 complete control)): 60
Plant response rating, Wheat (winter) (winter wheat [2]; Rate 1000 g/ha, 0 to 100 scale, 0 is no effect and 100 is complete control): 70
Plant response rating, Wheat (winter) (winter wheat [2]; Rate 500 g/ha, 0 to 100 scale, 0 no effect, 100 complete control): 75
Plant response rating, Barley (winter) (winter barley; Rate 250 g/ha, 0 to 100 scale): 10
Plant response rating, Barley (winter) (winter barley; [3]): 20
Plant response rating, Barley (winter) (winter barley; [4]): 60
Sugarbeets plant response rating (sugar beet; [5]): 0
Sugarbeets plant response rating (sugar beet; [6]): 0
Sugarbeets plant response rating (sugar beet; [7]): 0
Plant response rating, Sugarbeets (sugar beet; [8]): 0
Plant response rating, Sugarbeets (sugar beet; [9]): 0
Sugarbeets plant response rating (sugar beet; [10]): 4
Sugarbeets plant response rating (sugar beet; [11]): 0
Sugarbeets plant response rating (sugar beet; [12]): 0
Rape plant response rating (rape; [5]): 0
Rape plant response rating (rape; [6]): 0
Rape plant response rating (rape; [7]): 0
Plant response rating, Rape (rape; [8]): 0
Plant response rating, Rape (rape; [9]): 0
Rape plant response rating (rape; [10]): 10
Rape plant response rating (rape; [11]): 0
Rape plant response rating (rape; [12]): 0
Plant response rating, Blackgrass (blackgrass; Rate 250 g/ha, 0 to 100 scale): 20
Plant response rating, Blackgrass (blackgrass; [3]): 40
Plant response rating, Blackgrass (blackgrass; [4]): 85
Plant response rating, I. Ryegrass (Italian ryegrass; Rate 250 g/ha, 0 to 100 scale): 20
Plant response rating, I. Ryegrass (Italian ryegrass; [3]): 30
Plant response rating, I. Ryegrass (Italian ryegrass; [4]): 50
Plant response rating, Wild oat (wild oat): 10

CC(C)N(C(=O)n1oc(=O)n(CCC2OCCO2)c1=O)c1ccc(Cl)cc1 [Compound 531]
Redroot pigweed plant response rating (pigweed; [13]): 0
Redroot pigweed plant response rating (pigweed; [14]): 0
Plant response rating, Redroot pigweed (pigweed; [15]): 0
Plant response rating, Redroot pigweed (pigweed; [16]): 0
Redroot pigweed plant response rating (pigweed; [17]): 0
Redroot pigweed plant response rating (0 to 10 scale) (pigweed; Preemergence, Rate 250 g/ha): 0
Plant response rating, Redroot pigweed (pigweed; [18]): 0
Sugarbeets plant response rating (sugar beet; [13]): 0
Sugarbeets plant response rating (sugar beet; [14]): 0
Plant response rating, Sugarbeets (sugar beet; [15]): 6
Plant response rating, Sugarbeets (sugar beet; [16]): 0
Sugarbeets plant response rating (sugar beet; [17]): 4
Sugarbeets plant response rating (0 to 10 scale) (sugar beet; Preemergence, Rate 250 g/ha): 3
Plant response rating, Sugarbeets (sugar beet; [18]): 0
Rape plant response rating (rape; [13]): 0
Rape plant response rating (rape; [14]): 0
Plant response rating, Rape (rape; [15]): 2
Plant response rating, Rape (rape; [16]): 0
Rape plant response rating (rape; [17]): 0
Rape plant response rating (0 to 10 scale) (rape; Preemergence, Rate 250 g/ha): 0
Plant response rating, Rape (rape; [18]): 0

From US6737383B1, “Herbicidal oxadiazolidines” (priority 1999, dated 2004)
